In patent US20240148821A1, “PHARMACEUTICAL USE OF CYCLIC PEPTIDE COMPOUND” (CHUGAI SEIYAKU KABUSHIKI KAISHA, priority 2021, published 2024):
Numbered stars: 1 amine (or outer) side, 2 acyl side, 3 side chain; on linkers, the order of the positions; unused ones are H or OH. Bridge positions count the residues as written; N and C are the ends. Square brackets hold non-standard residues; d marks the D form. Peptide text beside a SMILES is read from it. * marks the point of attachment. hPhe(3,5-F2-4-CF3) = N[C@@H](CCc1cc(F)c(C(F)(F)F)c(F)c1)C(=O)O; hPhe(3-Cl-4-CF3) = N[C@@H](CCc1ccc(C(F)(F)F)c(Cl)c1)C(=O)O; hPhe(3-F,4-CF3) = N[C@@H](CCc1ccc(C(F)(F)F)c(F)c1)C(=O)O; X21 = O=C([C@H](CCc1ccc(OC(F)(F)F)c(F)c1)N[*:1])[*:2]; NPrAsp = CCCN([C@@H](CC(=O)[*:3])C(=O)[*:2])[*:1]; hPhe(4-CF3) = N[C@@H](CCc1ccc(C(F)(F)F)cc1)C(=O)O; NEtPhe(4-Cl) = CCN[C@@H](Cc1ccc(Cl)cc1)C(=O)O; NMePhe(4-Cl) = CN[C@@H](Cc1ccc(Cl)cc1)C(=O)O; NMePhe(4-Me) = CN[C@@H](Cc1ccc(C)cc1)C(=O)O; NMedβ3hAla = C[C@H](CC(=O)[*:2])N(C)[*:1]; NMeGly(cPent) = CN[C@H](C(=O)O)C1CCCC1; NMeGly(cBu) = CN[C@H](C(=O)O)C1CCC1; NMeCha = CN[C@@H](CC1CCCCC1)C(=O)O; hhPhe = N[C@@H](CCCc1ccccc1)C(=O)O; Hyp = O=C(O)[C@@H]1C[C@@H](O)CN1; NMeChg = CN[C@H](C(=O)O)C1CCCCC1; NMeF = CN[C@@H](Cc1ccccc1)C(=O)O; NMeI = CC[C@H](C)[C@H](NC)C(=O)O; NMeD = CN[C@@H](CC(=O)O)C(=O)O; NMeL = CN[C@@H](CC(C)C)C(=O)O; NMeNva = CCC[C@H](NC)C(=O)O; NMeV = CN[C@H](C(=O)O)C(C)C; d(β3hA) = C[C@@H](N)CC(=O)O; Pip = O=C(O)[C@@H]1CCCCN1; Morpholide = C1CN(*)CCO1; NMeA = CN[C@@H](C)C(=O)O; NMeAib = CNC(C)(C)C(=O)O; Nle = CCCC[C@H](N)C(=O)O; Piperidide = C1CCN(*)CC1; Pyrrolidide = C1CCN(*)C1; Ac5c = NC1(C(=O)O)CCCC1; Aze = O=C(O)[C@@H]1CCN1; Sar = CNCC(=O)O

Assays:
[1] = tested on: Human pancreatic cancer cell line AsPC-1 (G12D mutation Kras); assay: AsPC-1 cell growth inhibition (AsPC-1 CGI); assay type: cell-based; settings: read-out: AsPC-1 cell growth inhibition, 50% growth inhibitory concentration (IC50 value); 96 hours, CellTiter-Glo, values classified in ranges
[2] = target: protein-protein interaction between Kras and SOS1 (biotin-tagged human Kras loaded with GDP, His-tagged human SOS1) (Homo sapiens (Human), UniProt P01116, G12D); assay: Protein-protein interaction inhibition between Kras and SOS1 (KrasG12D-SOS PPI) using AlphaScreen; assay type: biochemical; settings: AlphaScreen; biotin-tagged human Kras loaded with GDP, His-tagged human SOS1; read-out: KRAS G12D-SOS PPI IC50;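 also: kras produced in E. coli, Ni-coupled donor beads and streptavidin acceptor beads, excitation 680 nm with emission detected at 520–620 nm via singlet oxygen transfer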

SMILES | IC50 [1] | IC50 [2]
CC[C@H](C)[C@@H]1NC(=O)[C@H](CC(C)C)N(C)C(=O)C[C@@H](C)N(C)C(=O)[C@H]([C@@H](C)CC)N(C)C(=O)C2(CCCC2)NC(=O)[C@@H]2CCCN2C(=O)[C@H](CCc2ccc(C(F)(F)F)c(Cl)c2)NC(=O)CN(C)C(=O)[C@H](CC2CCCCC2)N(C)C(=O)[C@@H]2CCN2C(=O)[C@H](C)N(C)C1=O [Compound 1733] (cyclo([Ac5c][NMeI][NMedβ3hAla][NMeL]I[NMeA][Aze][NMeCha][Sar][hPhe(3-Cl-4-CF3)]P)) | > 500 nM | 130 nM
CCCN1C(=O)[C@H](C2CCCC2)N(C)C(=O)C2(CCCC2)NC(=O)[C@@H]2CCCN2C(=O)[C@H](CCc2ccc(C(F)(F)F)c(Cl)c2)NC(=O)CN(C)C(=O)[C@H](C2CCC2)N(C)C(=O)[C@@H]2CCN2C(=O)[C@H](C)N(C)C(=O)[C@H]([C@@H](C)CC)NC(=O)[C@H](CC(C)C)N(C)C(=O)C[C@H]1C(=O)N1CCCCC1 [Compound 524] ([NMeL]I[NMeA][Aze][NMeGly(cBu)][Sar][hPhe(3-Cl-4-CF3)]P[Ac5c][NMeGly(cPent)][NPrAsp]-Piperidide; lactam N-11) | > 500 nM | 82 nM
CCC[C@H]1C(=O)N[C@@H]([C@@H](C)CC)C(=O)N(C)CC(=O)N(C)CC(=O)N(C)[C@@H](Cc2ccc(C)cc2)C(=O)N(C)CC(=O)N[C@@H](CCc2ccc(C(F)(F)F)c(Cl)c2)C(=O)N2C[C@H](OCC)C[C@H]2C(=O)NC2(CCCC2)C(=O)N(C)[C@@H](C2CCCCC2)C(=O)N(C)[C@H](C(=O)N2CCCC2)CC(=O)N1C [Compound 1285] ([NMeNva]I[Sar][Sar][NMePhe(4-Me)][Sar][hPhe(3-Cl-4-CF3)][Hyp](Et)[Ac5c][NMeChg][NMeD]-Pyrrolidide; lactam N-11) | ≤ 20 nM | 0.53 nM
CCCC[C@@H]1NC(=O)[C@H](CCc2ccc(C(F)(F)F)c(F)c2)NC(=O)CN(C)C(=O)[C@H](Cc2ccc(Cl)cc2)N(CC)C(=O)CN(C)C(=O)CN(C)C(=O)[C@H]([C@@H](C)CC)NC(=O)[C@H](CC(C)C)N(C)C(=O)C[C@@H](C)N(C)C(=O)[C@H](CC(C)C)NC(=O)C(C)(C)N(C)C1=O [Compound 257] (cyclo(I[Sar][Sar][NEtPhe(4-Cl)][Sar][hPhe(3-F,4-CF3)][Nle][NMeAib]L[NMedβ3hAla][NMeL])) | > 500 nM | 97 nM
CC[C@H](C)[C@@H]1NC(=O)[C@H](CC(C)C)N(C)C(=O)C[C@@H](C(=O)N2CCOCC2)N(C)C(=O)[C@H]([C@@H](C)CC)N(C)C(=O)C2(CCCC2)NC(=O)[C@@H]2CCCN2C(=O)[C@H](CCc2ccc(C(F)(F)F)c(F)c2)NC(=O)CN(C)C(=O)[C@H](Cc2ccc(C)cc2)N(C)C(=O)[C@@H]2CCN2C(=O)[C@H](C)N(C)C1=O [Compound 47] ([NMeL]I[NMeA][Aze][NMePhe(4-Me)][Sar][hPhe(3-F,4-CF3)]P[Ac5c][NMeI][NMeD]-Morpholide; lactam N-11) | ≤ 20 nM | 1.5 nM
CCO[C@@H]1C[C@H]2C(=O)NC3(CCCC3)C(=O)N(C)[C@@H](C3CCCC3)C(=O)N(C)[C@H](C(=O)N3CCCC3)CC(=O)N(C)[C@@H](CC(C)C)C(=O)N[C@@H]([C@@H](C)CC)C(=O)N(C)CC(=O)N(C)CC(=O)N(C)[C@@H](CC3CCCCC3)C(=O)N(C)CC(=O)N[C@@H](CCc3cc(F)c(C(F)(F)F)c(F)c3)C(=O)N2C1 [Compound 1162] ([NMeL]I[Sar][Sar][NMeCha][Sar][hPhe(3,5-F2-4-CF3)][Hyp](Et)[Ac5c][NMeGly(cPent)][NMeD]-Pyrrolidide; lactam N-11) | ≤ 20 nM | 0.57 nM
CC[C@H](C)[C@@H]1NC(=O)[C@H](C)N(C)C(=O)C[C@@H](C(=O)N2CCCCC2)N(C)C(=O)[C@H](C(C)C)N(C)C(=O)C2(CCCC2)NC(=O)[C@@H]2CCCN2C(=O)[C@H](CCCc2ccccc2)NC(=O)CN(C)C(=O)[C@H](CC2CCCCC2)N(C)C(=O)[C@@H]2CCN2C(=O)[C@H](C)N(C)C1=O [Compound 659] ([NMeA]I[NMeA][Aze][NMeCha][Sar][hhPhe]P[Ac5c][NMeV][NMeD]-Piperidide; lactam N-11) | – | 130 nM
CC[C@H](C)[C@@H]1NC(=O)[C@@H]2CCCCN2C(=O)C[C@@H](C)NC(=O)[C@H](CC(C)C)N(C)C(=O)[C@H](Cc2ccccc2)N(C)C(=O)[C@@H]2CCCN2C(=O)[C@H](CCc2ccc(C(F)(F)F)cc2)NC(=O)CN(C)C(=O)[C@H](Cc2ccc(Cl)cc2)N(C)C(=O)CN(C)C(=O)CN(C)C1=O [Compound 632] (cyclo(I[Sar][Sar][NMePhe(4-Cl)][Sar][hPhe(4-CF3)]P[NMeF][NMeL][d(β3hA)][Pip])) | – | 73 nM
CC[C@H](C)[C@@H]1NC(=O)[C@H](CC(C)C)N(C)C(=O)C[C@@H](C(=O)N2CCCCC2)N(C)C(=O)[C@H](C2CCCC2)N(C)C(=O)C2(CCCC2)NC(=O)[C@@H]2CCCN2C(=O)[C@H](CCc2ccc(OC(F)(F)F)c(F)c2)NC(=O)CN(C)C(=O)[C@H](CC2CCCCC2)N(C)C(=O)[C@@H]2CCN2C(=O)[C@H](C)N(C)C1=O [Compound 2067] ([NMeL]I[NMeA][Aze][NMeCha][Sar][X21]P[Ac5c][NMeGly(cPent)][NMeD]-Piperidide; lactam N-11 (inferred); C-terminus assumed) | – | 0.84 nM
